# Key:
# Format in all cases: biochemical
# [1] = target: T1, Recombinant human FAP (Homo sapiens, UniProt Q12884); experiment: FAP inhibition, fluorogenic substrate Z-Gly-Pro-AMC; conditions: 25° C., Z-Gly-Pro-AMC substrate
# T1 construct: purchased R&D systems
# T1 sequence (Q12884 1-760): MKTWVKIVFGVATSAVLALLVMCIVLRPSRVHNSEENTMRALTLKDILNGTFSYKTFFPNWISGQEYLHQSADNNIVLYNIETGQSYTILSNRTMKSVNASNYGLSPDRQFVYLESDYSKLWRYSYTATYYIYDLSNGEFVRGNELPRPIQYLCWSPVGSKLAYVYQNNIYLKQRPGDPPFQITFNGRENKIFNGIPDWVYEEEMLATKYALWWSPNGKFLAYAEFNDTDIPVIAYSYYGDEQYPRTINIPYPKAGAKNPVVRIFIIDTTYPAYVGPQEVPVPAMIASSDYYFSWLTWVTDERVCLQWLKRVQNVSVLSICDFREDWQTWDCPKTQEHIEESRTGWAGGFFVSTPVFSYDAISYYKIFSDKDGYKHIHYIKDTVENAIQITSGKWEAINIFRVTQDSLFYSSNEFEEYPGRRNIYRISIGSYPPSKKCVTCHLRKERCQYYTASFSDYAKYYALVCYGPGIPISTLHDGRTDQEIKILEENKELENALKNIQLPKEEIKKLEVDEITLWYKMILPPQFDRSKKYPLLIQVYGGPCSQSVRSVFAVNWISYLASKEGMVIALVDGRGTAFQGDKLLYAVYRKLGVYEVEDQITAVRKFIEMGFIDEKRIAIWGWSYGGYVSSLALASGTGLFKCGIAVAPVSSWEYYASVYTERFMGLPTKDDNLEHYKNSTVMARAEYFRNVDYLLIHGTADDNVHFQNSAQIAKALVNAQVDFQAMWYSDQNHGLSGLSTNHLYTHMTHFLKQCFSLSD
# How it was run: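 Recombinant human FAP, 10 ng per reaction, in 50 mM Tris pH 7.5 with 1 M NaCl and 1 mg/ml BSA at 25° C; substrate Z-Gly-Pro-AMC, ≤0.1% DMSO. AMC fluorescence read at ex 380/em 460 nm; % signal-rate decrease vs no-inhibitor control, 8-point curves fitted to a four-parameter logistic for IC50.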
# [2] = target: T2, recombinant human DPP7 (Homo sapiens, UniProt Q9UHL4); experiment: DPP7 inhibition, fluorogenic substrate Lys-Pro-AMC
# T2 construct: purchased R&D Systems
# How it was run: (§1)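 Enzyme per reaction: 50 ng DPP9, 20 ng DPP8, 10 ng each DPP7 and PREP. Compounds were serially diluted (8 points, up to 0.5% DMSO) and incubated at 25 °C.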
# [3] = target: T3, recombinant human DPP8 (Homo sapiens, UniProt Q6V1X1); experiment: DPP8 inhibition, fluorogenic substrate Z-Ala-Pro-AMC; conditions: 25° C., Z-Ala-Pro-AMC substrate
# T3 construct: purchased PBS Bioscience
# How it was run: as §1
# [4] = target: T4, recombinant human DPP9 (Homo sapiens, UniProt Q86TI2); experiment: DPP9 inhibition, fluorogenic substrate H-Gly-Pro-AMC; conditions: 25° C., H-Gly-Pro-AMC substrate
# T4 construct: purchased R&D Systems
# How it was run: as §1
# [5] = target: T5, recombinant human PREP (Homo sapiens, UniProt P48147); experiment: PREP inhibition, fluorogenic substrate Z-Gly-Pro-AMC; conditions: Inhibitory Activity (IC50, nM) PREP, 25° C., Z-Gly-Pro-AMC substrate
# T5 construct: purchased R&D System
# T5 sequence (P48147 1-710): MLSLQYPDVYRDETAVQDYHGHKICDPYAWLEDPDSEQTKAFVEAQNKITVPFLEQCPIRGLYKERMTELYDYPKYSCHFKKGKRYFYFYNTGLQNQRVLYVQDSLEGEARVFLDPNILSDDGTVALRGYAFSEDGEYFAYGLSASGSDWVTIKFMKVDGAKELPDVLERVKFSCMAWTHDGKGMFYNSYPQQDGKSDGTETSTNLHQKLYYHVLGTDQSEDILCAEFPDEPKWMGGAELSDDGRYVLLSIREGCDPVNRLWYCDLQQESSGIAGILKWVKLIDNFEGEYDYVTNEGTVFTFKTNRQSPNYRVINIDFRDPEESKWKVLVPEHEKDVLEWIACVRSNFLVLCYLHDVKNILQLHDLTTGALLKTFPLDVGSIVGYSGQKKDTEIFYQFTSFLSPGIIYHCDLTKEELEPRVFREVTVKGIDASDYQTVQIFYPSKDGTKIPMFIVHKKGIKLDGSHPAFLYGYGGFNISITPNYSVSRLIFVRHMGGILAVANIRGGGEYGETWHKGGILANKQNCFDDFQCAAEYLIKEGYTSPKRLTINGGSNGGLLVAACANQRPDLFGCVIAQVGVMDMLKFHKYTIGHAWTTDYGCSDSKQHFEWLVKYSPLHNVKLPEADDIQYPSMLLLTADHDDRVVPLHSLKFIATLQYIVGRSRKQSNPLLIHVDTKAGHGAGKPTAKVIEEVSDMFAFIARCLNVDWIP
# How it was run: as §1
# [6] = target: DPP4 (Homo sapiens, UniProt P27487); experiment: DPP4 inhibition, fluorogenic substrate H-Gly-Pro-AMC; design: purchased R&D Systems; conditions: for inhibition at 1 µM: read-out: hDPP4 inhibition % at 1 μM; for IC50: 25° C., H-Gly-Pro-AMC substrate
# DPP4, sequence (P27487 whole entry): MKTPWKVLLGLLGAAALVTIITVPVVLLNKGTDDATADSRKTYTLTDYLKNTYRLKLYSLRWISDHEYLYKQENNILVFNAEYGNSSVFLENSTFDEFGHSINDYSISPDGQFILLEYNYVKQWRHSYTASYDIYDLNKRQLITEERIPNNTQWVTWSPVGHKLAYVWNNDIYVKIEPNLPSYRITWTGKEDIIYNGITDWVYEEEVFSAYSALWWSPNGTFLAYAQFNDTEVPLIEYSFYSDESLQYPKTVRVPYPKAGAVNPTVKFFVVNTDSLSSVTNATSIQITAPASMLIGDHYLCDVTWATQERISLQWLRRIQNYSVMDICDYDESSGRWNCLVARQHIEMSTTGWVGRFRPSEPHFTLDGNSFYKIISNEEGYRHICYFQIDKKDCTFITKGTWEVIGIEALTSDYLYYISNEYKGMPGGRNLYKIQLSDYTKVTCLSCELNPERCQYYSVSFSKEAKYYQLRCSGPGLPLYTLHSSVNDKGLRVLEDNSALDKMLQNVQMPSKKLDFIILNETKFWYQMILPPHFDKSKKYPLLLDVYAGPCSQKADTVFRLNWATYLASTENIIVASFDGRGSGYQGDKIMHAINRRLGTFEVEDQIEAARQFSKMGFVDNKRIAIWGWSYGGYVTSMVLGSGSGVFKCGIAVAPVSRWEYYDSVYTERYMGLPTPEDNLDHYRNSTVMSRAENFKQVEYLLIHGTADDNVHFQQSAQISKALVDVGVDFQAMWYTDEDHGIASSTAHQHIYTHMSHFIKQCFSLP
# T3 sequence (Q6V1X1 whole entry): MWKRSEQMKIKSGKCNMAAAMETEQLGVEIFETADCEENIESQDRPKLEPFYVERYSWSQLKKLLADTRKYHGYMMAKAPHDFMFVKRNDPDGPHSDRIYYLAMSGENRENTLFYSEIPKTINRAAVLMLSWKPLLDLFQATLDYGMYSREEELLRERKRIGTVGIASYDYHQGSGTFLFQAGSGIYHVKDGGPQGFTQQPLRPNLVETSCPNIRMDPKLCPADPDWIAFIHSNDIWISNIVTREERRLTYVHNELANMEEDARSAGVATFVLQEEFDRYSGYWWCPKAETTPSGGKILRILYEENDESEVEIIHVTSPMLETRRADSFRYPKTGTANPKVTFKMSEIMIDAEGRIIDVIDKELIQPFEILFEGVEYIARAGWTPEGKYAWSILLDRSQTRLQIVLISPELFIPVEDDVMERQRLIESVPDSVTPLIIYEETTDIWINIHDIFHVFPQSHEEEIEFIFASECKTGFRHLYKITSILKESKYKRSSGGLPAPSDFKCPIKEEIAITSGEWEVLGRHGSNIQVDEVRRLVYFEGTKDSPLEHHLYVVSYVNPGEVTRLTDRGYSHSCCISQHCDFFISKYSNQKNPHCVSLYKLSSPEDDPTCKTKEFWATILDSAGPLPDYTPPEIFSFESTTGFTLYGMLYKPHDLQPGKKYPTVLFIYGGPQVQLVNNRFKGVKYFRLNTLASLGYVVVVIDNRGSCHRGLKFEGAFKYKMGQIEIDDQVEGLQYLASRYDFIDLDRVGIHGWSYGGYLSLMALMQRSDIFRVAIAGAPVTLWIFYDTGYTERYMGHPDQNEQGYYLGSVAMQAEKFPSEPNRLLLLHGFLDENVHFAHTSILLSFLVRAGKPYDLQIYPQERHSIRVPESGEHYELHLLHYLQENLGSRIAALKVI
# T4 sequence (Q86TI2 whole entry): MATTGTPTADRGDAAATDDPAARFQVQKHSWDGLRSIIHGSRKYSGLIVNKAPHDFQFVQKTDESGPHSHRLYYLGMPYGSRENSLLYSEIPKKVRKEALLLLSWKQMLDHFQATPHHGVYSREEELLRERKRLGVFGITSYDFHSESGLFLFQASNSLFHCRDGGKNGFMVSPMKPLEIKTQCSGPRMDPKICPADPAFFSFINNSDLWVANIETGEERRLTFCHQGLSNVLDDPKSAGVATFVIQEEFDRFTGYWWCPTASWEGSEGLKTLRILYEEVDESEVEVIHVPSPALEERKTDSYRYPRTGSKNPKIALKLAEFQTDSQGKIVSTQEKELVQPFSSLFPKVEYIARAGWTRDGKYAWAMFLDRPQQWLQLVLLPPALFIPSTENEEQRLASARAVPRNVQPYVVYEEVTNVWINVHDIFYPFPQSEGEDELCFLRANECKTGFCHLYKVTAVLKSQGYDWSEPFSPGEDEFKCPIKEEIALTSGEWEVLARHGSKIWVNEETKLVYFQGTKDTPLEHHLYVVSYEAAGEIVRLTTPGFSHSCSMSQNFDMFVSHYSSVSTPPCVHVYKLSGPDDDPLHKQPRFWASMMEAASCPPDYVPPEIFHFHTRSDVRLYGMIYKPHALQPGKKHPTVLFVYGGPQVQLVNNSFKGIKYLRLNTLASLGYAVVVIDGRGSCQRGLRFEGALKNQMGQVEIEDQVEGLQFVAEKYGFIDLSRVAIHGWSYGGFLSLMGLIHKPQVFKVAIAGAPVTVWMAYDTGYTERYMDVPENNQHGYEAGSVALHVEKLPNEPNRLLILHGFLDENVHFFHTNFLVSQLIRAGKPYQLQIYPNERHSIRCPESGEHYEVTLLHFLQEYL
IC50 [1] [nM],IC50 [2] [nM],IC50 [3] [µM],IC50 [4] [µM],IC50 [5] [nM],inhibition at 1 µM [6] [%],IC50 [6] [nM],Compound
2.23,762,12,> 100,6750,3.6,–,"N#C[C@@H]1CCCN1C(=O)CN1CC[C@H](NC(=O)c2coc3cccc(O)c23)C1 [Example 48, N—((S)-1-(2-((S)-2-cyanopyrrolidin-1-yl)-2-oxoethyl)pyrrolidin-3-yl)-4-hydroxybenzofuran-3-carboxamide]"
4.42,4370,12.3,92.6,8360,0.6,–,"N#C[C@@H]1CCCN1C(=O)CN1CC[C@H](NC(=O)c2coc3cc(O)ccc23)C1 [Example 49, N—((S)-1-(2-((S)-2-cyanopyrrolidin-1-yl)-2-oxoethyl)pyrrolidin-3-yl)-6-hydroxybenzofuran-3-carboxamide]"
10.9,3320,38.9,> 100,13400,0.6,–,"N#C[C@@H]1CCCN1C(=O)CN1CC[C@H](NC(=O)c2coc3c(F)cc(F)cc23)C1 [Example 51, N—((S)-1-(2-((S)-2-cyanopyrrolidin-1-yl)-2-oxoethyl)pyrrolidin-3-yl)-5,7-difluorobenzofuran-3-carboxamide]"
8.48,2390,23.2,> 100,5500,2,–,"COc1ccc2c(C(=O)N[C@H]3CCN(CC(=O)N4CCC[C@H]4C#N)C3)coc2c1 [Example 54, N—((S)-1-(2-((S)-2-cyanopyrrolidin-1-yl)-2-oxoethyl)pyrrolidin-3-yl)-6-methoxybenzofuran-3-carboxamide]"
25.1,500,6,26.5,10200,0.6,–,"N#C[C@@H]1CCCN1C(=O)CN1CC[C@H](NC(=O)c2ccc3ccoc3c2)C1 [Example 57, N—((S)-1-(2-((S)-2-cyanopyrrolidin-1-yl)-2-oxoethyl)pyrrolidin-3-yl)benzofuran-6-carboxamide]"
19,3560,> 100,15.7,84000,–,> 1000,"N#C[C@@H]1CCCN1C(=O)CN1CC[C@H](Oc2cccc3cccnc23)C1 [Example 64, (S)-1-(2-((S)-3-(quinolin-8-yloxy)pyrrolidin-1-yl)acetyl)pyrrolidine-2-carbonitrile]"
6.77,3400,> 100,70.6,85700,–,> 1000,"N#C[C@@H]1CCCN1C(=O)CN1CC[C@H](Oc2cccc3cnccc23)C1 [Example 65, (S)-1-(2-((S)-3-(isoquinolin-5-yloxy)pyrrolidin-1-yl)acetyl)pyrrolidine-2-carbonitrile]"
7.96,3730,> 100,> 100,> 100000,–,> 1000,"N#C[C@@H]1CCCN1C(=O)CN1CC[C@H](Oc2ncnc3sccc23)C1 [Example 68, (S)-1-(2-((S)-3-(thieno[2,3-d]pyrimidin-4-yloxy)pyrrolidin-1-yl)acetyl)pyrrolidine-2-carbonitrile]"
9.84,814,93.2,> 100,5250,–,> 1000,"N#C[C@@H]1CCCN1C(=O)CN1CC[C@H](Oc2cccc3[nH]c(=O)ccc23)C1 [Example 75, (S)-1-(2-((S)-3-((2-oxo-1,2-dihydroquinolin-5-yl)oxy)pyrrolidin-1-yl)acetyl)pyrrolidine-2-carbonitrile]"
7.6,5940,27.4,84.9,3930,–,> 1000,"N#C[C@@H]1CCCN1C(=O)CN1CC[C@H](Oc2ccc(Cl)c3cccnc23)C1 [Example 81, (S)-1-(2-((S)-3-((5-chloroquinolin-8-yl)oxy)pyrrolidin-1-yl)acetyl)pyrrolidine-2-carbonitrile]"
1,9460,> 100,> 100,5400,–,> 1000,"COc1ccc2nccc(O[C@H]3CCN(CC(=O)N4CCC[C@H]4C#N)C3)c2c1 [Example 84, (S)-1-(2-((S)-3-((6-methoxyquinolin-4-yl)oxy)pyrrolidin-1-yl)acetyl)pyrrolidine-2-carbonitrile]"
13.5,1150,73.8,> 100,2490,–,> 1000,"COc1ccc2c(O[C@H]3CCN(CC(=O)N4CCC[C@H]4C#N)C3)ccnc2c1 [Example 100, (S)-1-(2-((S)-3-((7-methoxyquinolin-4-yl)oxy)pyrrolidin-1-yl)acetyl)pyrrolidine-2-carbonitrile]"
0.57,626,> 100,> 100,3020,–,> 1000,"COc1cc2nccc(O[C@H]3CCN(CC(=O)N4CCC[C@H]4C#N)C3)c2cc1OC [Example 101, (S)-1-(2-((S)-3-((6,7-dimethoxyquinolin-4-yl)oxy)pyrrolidin-1-yl)acetyl)pyrrolidine-2-carbonitrile]"
0.68,174,7.68,4.75,5670,–,> 1000,"COc1ccc2nccc(O[C@H]3CCN(CC(=O)N4CC(F)(F)C[C@H]4C#N)C3)c2c1 [Example 103, (S)-4,4-difluoro-1-(2-((S)-3-((6-methoxyquinolin-4-yl)oxy)pyrrolidin-1-yl)acetyl)pyrrolidine-2-carbonitrile]"
1.14,83.4,16.2,22.2,3080,–,> 1000,"N#C[C@@H]1CC(F)(F)CN1C(=O)CN1CC[C@H](Oc2ccnc3c(C(F)(F)F)cccc23)C1 [Example 104, (S)-4,4-difluoro-1-(2-((S)-3-((8-(trifluoromethyl)quinolin-4-yl)oxy)pyrrolidin-1-yl)acetyl)pyrrolidine-2-carbonitrile]"
1.21,63.5,11.8,12.5,5230,–,> 1000,"N#C[C@@H]1CC(F)(F)CN1C(=O)CN1CC[C@H](Oc2cccc3ncccc23)C1 [Example 105, (S)-4,4-difluoro-1-(2-((S)-3-(quinolin-5-yloxy)pyrrolidin-1-yl)acetyl)pyrrolidine-2-carbonitrile]"
1.88,41.6,8.28,10.3,4310,–,> 1000,"N#C[C@@H]1CC(F)(F)CN1C(=O)CN1CC[C@H](Oc2cccc3cnccc23)C1 [Example 106, (S)-4,4-difluoro-1-(2-((S)-3-(isoquinolin-5-yloxy)pyrrolidin-1-yl)acetyl)pyrrolidine-2-carbonitrile]"

# Source: US11655235B2, “Pyrrolidine and piperidine compounds” (YUHAN CORPORATION, priority 2019, dated 2023)
